What is called MIC is the smallest concentration in the dilution series that meets the test's criterion for growth inhibition.

≈ marks a conversion by molar mass, not a printed value. Where a name gives a salt, the structure may show the parent alone. Read-outs that look alike come from different tables or passages of the source.

The text below walks through data of patent US5126337A, “Thiazetoquinoline-3-carboxylic acid derivative and a pharmaceutical composition comprising the same” (priority 1989, dated 1992).

The subject of data set [1] is Klebsiella pneumoniae PCI-602. As to the kind of experiment: Antibacterial spectrum, MIC by twofold agar dilution method. Type of data set: cell-based. The procedure: Minimum inhibitory concentrations (MIC) of test compounds were determined by the twofold agar dilution method (Chemotherapy, 29(1), 76(1981)). Overnight cultures in Mueller-Hinton broth were suspended by buffered saline gelatin. One loopful of the bacterial suspension (10^6 or 10^8 colony-forming units/ml) was incubated onto the plates containing test compounds. The plates were incubated for 18 hrs at 37° C. The MIC was defined by the lowest concentration of the drug that inhibited visible growth of bacteria.
For orientation: In agar dilution, organisms are placed on agar that contains the substance at set levels.

Data set [2] deals with Male mice of ddY strain. As to the kind of experiment: Acute toxicity (i.v.). It is filed as in vivo. The settings on record: 270 mg/kg (i.v.). The procedure: Male mice of ddY strain, 4 weeks old, were used. Test compounds were solved in 0.1N--NaOH solution and neutralized with 0.1N--HCl solution. Each compound was administered intravenously (i.v.) at a dose of 270 mg/kg. […]

For data set [3], the system named is Male mice of ddY strain. The data set is described as follows: Convulsion inducing activity in combination with fenbufen. The settings on record: 30 min after fenbufen 100 mg/kg orally.
Procedure: Male mice of ddY strain, 5 weeks old, were used. Fenbufen suspended in 0.5% carboxymethyl cellulose was administered orally at a dose of 100 mg/kg. After thirty minutes, test compounds suspended in 0.5% carboxymethyl cellulose were injected intraperitoneally (i.p.) at a dose of 100 mg/kg or 300 mg/kg.
The test system of data set [4] is Acinetobacter calcoaceticus HNR 904. The data set is described as follows: Antibacterial spectrum, MIC by twofold agar dilution method. It is filed as cell-based. As to conditions: HNR904, 10^6 cfu/ml, clinically isolated strain, Gram -, 18 hrs at 37° C. The procedure: (§1) Overnight cultures in Mueller-Hinton broth were suspended by buffered saline gelatin. One loopful of the bacterial suspension (10^6 or 10^8 colony-forming units/ml) was incubated onto the plates containing test compounds. The plates were incubated for 18 hrs at 37° C. The MIC was defined by the lowest concentration of the drug that inhibited visible growth of bacteria.

Data set [5] relates to Acinetobacter calcoaceticus HNR 916. The description is as above. It is filed as cell-based. As to conditions: HNR916, 10^6 cfu/ml, clinically isolated strain, Gram -, 18 hrs at 37° C. As for the experimental part: as §1
The subject of data set [6] is Acinetobacter calcoaceticus HNR 939. The data set is described as above. Type of data set: cell-based. The settings on record: HNR939, 10^6 cfu/ml, clinically isolated strain, Gram -, 18 hrs at 37° C. The procedure: as §1
In another data set the test system is Enterobacter cloacae 963. The description is as above. It is filed as cell-based. The settings on record: 10^6 cfu/ml, standard laboratory strain, Gram -, 18 hrs at 37° C. The procedure:
as §1

The subject of data set [7] is Enterobacter cloacae HNR 1939. The data set is described as above. Type of data set: cell-based. As to conditions: HNR1939, 10^6 cfu/ml, clinically isolated strain, Gram -, 18 hrs at 37° C. The procedure: as §1
In data set [8] the test system is Enterobacter cloacae HNR 1941. Described as above. Type of data set: cell-based. As to conditions: HNR1941, 10^6 cfu/ml, clinically isolated strain, Gram -, 18 hrs at 37° C. The procedure: as §1
Data set [9] concerns Enterobacter cloacae HNR 1946. The description is as above. Type of data set: cell-based. The settings on record: HNR1946, 10^6 cfu/ml, clinically isolated strain, Gram -, 18 hrs at 37° C. The procedure:
as §1

Data set [10] relates to Enterococcus faecalis HPC 948. Described as above. The settings on record: HPC948, 10^6 cfu/ml, clinically isolated strain, Gram +, 18 hrs at 37° C. It is filed as cell-based. As for the experimental part:
as §1

The subject of data set [11] is Enterococcus faecalis HPC 975. The data set is described as above. It is filed as cell-based. The settings on record: HPC975, 10^6 cfu/ml, clinically isolated strain, Gram +, 18 hrs at 37° C. As for the experimental part: as §1
The subject of data set [12] is Enterococcus faecalis HPC 984. The description is as above. It is filed as cell-based. As to conditions: HPC984, 10^6 cfu/ml, clinically isolated strain, Gram +, 18 hrs at 37° C. As for the experimental part:
as §1

In data set [13] the test system is Escherichia coli NIHJ JC-2. The data set is described as above. Type of data set: cell-based. The settings on record: NIHJJC2, 10^6 cfu/ml, standard laboratory strain, Gram -, 18 hrs at 37° C. The procedure: as §1
Data set [14] relates to Klebsiella pneumoniae HNR 828. The description is as above. It is filed as cell-based. The settings on record: HNR828, 10^6 cfu/ml, clinically isolated strain, Gram -, 18 hrs at 37° C. As for the experimental part:
as §1

Data set [15] has as its system Klebsiella pneumoniae HNR 858. The data set is described as above. Type of data set: cell-based. As to conditions: HNR858, 10^6 cfu/ml, clinically isolated strain, Gram -, 18 hrs at 37° C. The procedure:
as §1

Data set [16] has as its system Klebsiella pneumoniae HNR 869. The data set is described as above. It is filed as cell-based. The settings on record: HNR869, 10^6 cfu/ml, clinically isolated strain, Gram -, 18 hrs at 37° C. As for the experimental part:
as §1

Data set [17] has as its system Pseudomonas aeruginosa HNR 1472. The description is as above. The settings on record: HNR1472, 10^6 cfu/ml, clinically isolated strain, Gram -, 18 hrs at 37° C. It is filed as cell-based. As for the experimental part: as §1
Data set [18] deals with Pseudomonas aeruginosa HNR 1489. The description is as above. Type of data set: cell-based. As to conditions: HNR1489, 10^6 cfu/ml, clinically isolated strain, Gram -, 18 hrs at 37° C. As for the experimental part:
as §1

The subject of data set [19] is Pseudomonas aeruginosa HNR 1537. Described as above. Type of data set: cell-based. As to conditions: HNR1537, 10^6 cfu/ml, clinically isolated strain, Gram -, 18 hrs at 37° C. As for the experimental part: as §1
In data set [20] the test system is Pseudomonas aeruginosa IFO 3445. The description is as above. Type of data set: cell-based. As to conditions: IFO3445, 10^6 cfu/ml, standard laboratory strain, Gram -, 18 hrs at 37° C. As for the experimental part: as §1
For data set [21], the system named is Serratia marcescens HNR 1544. Described as above. It is filed as cell-based. The settings on record: HNR1544, 10^6 cfu/ml, clinically isolated strain, Gram -, 18 hrs at 37° C. The procedure: as §1
Data set [22] deals with Serratia marcescens HNR 1767. Described as above. The settings on record: HNR1767, 10^6 cfu/ml, clinically isolated strain, Gram -, 18 hrs at 37° C. It is filed as cell-based. As for the experimental part: as §1
In data set [23] the test system is Serratia marcescens HNR 1792. The data set is described as above. Type of data set: cell-based. The settings on record: HNR1792, 10^6 cfu/ml, clinically isolated strain, Gram -, 18 hrs at 37° C. The procedure: as §1
Data set [24] deals with Serratia marcescens IAM 1184. The description is as above. It is filed as cell-based. As to conditions: IAM1184, 10^6 cfu/ml, standard laboratory strain, Gram -, 18 hrs at 37° C. The procedure: as §1
Data set [25] has as its system Staphylococcuss aureus HPC 292. The description is as above. Type of data set: cell-based. The procedure:
as §1

The test system of data set [26] is Staphylococcuss aureus HPC 308. The data set is described as above. It is filed as cell-based. The settings on record: 10^6 cfu/ml; clinically isolated strain, Gram +; 18 hrs at 37° C. The procedure:
as §1

Data set [27] has as its system Staphylococcuss aureus HPC 527. The description is as above. Type of data set: cell-based. As to conditions: 10^6 cfu/ml; clinically isolated strain, Gram +; 18 hrs at 37° C. The procedure: as §1
Data set [28] deals with Staphylococuss aureus FDA 209PJC-1. Described as above. It is filed as cell-based. As to conditions: 10^6 cfu/ml; standard laboratory strain, Gram +; 18 hrs at 37° C. As for the experimental part: as §1
The mark [29] stands for this setting: PCI602, 10^6 cfu/ml, standard laboratory strain, Gram -, 18 hrs at 37° C, read-out: MIC.

With `O=C(O)c1cn(C2CC2)c2cc(N3CCNCC3)c(F)cc2c1=O` [Reference Drug A, ciprofloxacin hydrochloride, reference compound], the MIC in data set [1] (PCI602, 18 h) was found to be 0.012 µg/mL. Further, the “Number of death/Number of animals” value with Male mice of ddY strain [2] is listed as 7/10. In addition, the “Number of convulsion induced/Number of animals” value is 4/6 in the data set on Male mice of ddY strain [3] (100 mg/kg (i.p.)) and 6/6 in the data set with Male mice of ddY strain [3] (300 mg/kg (i.p.)).
`CC1Sc2c(C(=O)O)c(=O)c3cc(F)c(N4CC[C@H](N(C)C)C4)c(F)c3n21` (stereo partly drawn) [Example 37, 7-((S)-3-Dimethylamino-1-pyrrolidinyl)-6,8-difluoro-1-methyl-4-oxo-1H,4H-[1,3]thiazeto[3,2-a]quinoline-3-carboxylic acid]: the MIC is 25 µg/mL (≈ 63.2 µM) in data set [4]; 0.2 µg/mL (≈ 0.506 µM) in data set [5]; 1.56 µg/mL (≈ 3.95 µM) in data set [6]; 0.2 µg/mL (≈ 0.506 µM) in the data set on Enterobacter cloacae 963; 0.78 µg/mL (≈ 1.97 µM) in [7]; 25 µg/mL (≈ 63.2 µM) in [8]. Further, the MIC in data set [9] was determined as 1.56 µg/mL (≈ 3.95 µM); in [10] it was 3.13 µg/mL (≈ 7.92 µM); in [11] it was 12.5 µg/mL (≈ 31.6 µM); in [12], 0.78 µg/mL (≈ 1.97 µM); in [13], 0.1 µg/mL (≈ 0.253 µM); in data set [14], 12.5 µg/mL (≈ 31.6 µM). The MIC in [15] was found to be 0.78 µg/mL (≈ 1.97 µM); in [16] it was 3.13 µg/mL (≈ 7.92 µM); in data set [17] it was 50 µg/mL (≈ 126 µM); in data set [18] it was 0.78 µg/mL (≈ 1.97 µM); in data set [19], 100 µg/mL (≈ 253 µM); in data set [20] it was 0.78 µg/mL (≈ 1.97 µM). Also, the MIC is 0.2 µg/mL (≈ 0.506 µM) in data set [21]; 25 µg/mL (≈ 63.2 µM) in data set [22]; 12.5 µg/mL (≈ 31.6 µM) in data set [23]; 0.39 µg/mL (≈ 0.986 µM) in data set [24]; 6.25 µg/mL (≈ 15.8 µM) in data set [25] (18 h); 3.13 µg/mL (≈ 7.92 µM) in [26]. Also, the results for the MIC in [27], in data set [28] and in [1] (setting [29]) were 0.2 µg/mL (≈ 0.506 µM), 0.2 µg/mL (≈ 0.506 µM) and 0.05 µg/mL (≈ 0.126 µM), respectively.
In the case of `CC1Sc2c(C(=O)O)c(=O)c3cc(F)c(N4CC[C@H](N(C)C)C4)c(Cl)c3n21` (stereo partly drawn) [Example 35, 8-Chloro-7-((S)-3-dimethylamino-1-pyrrolidinyl)-6-fluoro-1-methyl-4-oxo-1H,4H-[1,3]thiazeto[3,2-a]quinoline-3-carboxylic acid], the MIC in data set [4] was 3.13 µg/mL (≈ 7.6 µM); in [5] it was 0.1 µg/mL (≈ 0.243 µM); in data set [6] it was 1.56 µg/mL (≈ 3.79 µM); with Enterobacter cloacae 963, 0.1 µg/mL (≈ 0.243 µM); in data set [7], 0.39 µg/mL (≈ 0.947 µM); in [8] it was 6.25 µg/mL (≈ 15.2 µM). Further, the MIC in data set [9] is 0.39 µg/mL (≈ 0.947 µM); in [10], 1.56 µg/mL (≈ 3.79 µM); in data set [11] it was 12.5 µg/mL (≈ 30.3 µM); in [12], 0.39 µg/mL (≈ 0.947 µM); in data set [13], 0.1 µg/mL (≈ 0.243 µM); in data set [14], 6.25 µg/mL (≈ 15.2 µM). The MIC was found to be 0.39 µg/mL (≈ 0.947 µM) in data set [15]; 1.56 µg/mL (≈ 3.79 µM) in data set [16]; 12.5 µg/mL (≈ 30.3 µM) in data set [17]; 0.78 µg/mL (≈ 1.89 µM) in data set [18]; 25 µg/mL (≈ 60.7 µM) in [19]; 0.78 µg/mL (≈ 1.89 µM) in [20]. For the same compound, the MIC in [21] was 0.1 µg/mL (≈ 0.243 µM); in data set [22] it was 12.5 µg/mL (≈ 30.3 µM); in data set [23], 3.13 µg/mL (≈ 7.6 µM); in data set [24], 0.2 µg/mL (≈ 0.486 µM); in data set [25] (10^6 cfu/ml, clinically isolated strain, Gram +, 18 hrs at 37° C, read-out: MIC) it was 12.5 µg/mL (≈ 30.3 µM); in data set [26] it was 0.78 µg/mL (≈ 1.89 µM). The results for the MIC in [27], in [28] and in data set [1] (setting [29]) were 0.1 µg/mL (≈ 0.243 µM), 0.1 µg/mL (≈ 0.243 µM) and 0.05 µg/mL (≈ 0.121 µM), respectively.
